Experimental findings from PubChem BioAssay (NCI) are described below.

Among the test systems are SNB-75 CNS; SF-268 CNS; HCT-116 colon; MOLT-4 leukemia; EKVX NSCLC; SF-295 CNS; SW-620 colon; SF-539 CNS; PC-3 prostate; A549 NSCLC.
Holding throughout (assay): growth of human tumour cells (NCI), 48 h

“And” between values parts separate entries of the source, which are not always exact repeats. Identical values can stand only once.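 96-well plates; 48 h exposure; 5 concentrations. Endpoints by linear interpolation between flanking doses. Not reached: highest tested concentration assigned. Here, GI50 denotes the concentration required for 50% inhibition of growth. TGI denotes the concentration required for complete inhibition of growth.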

Regarding `COc1ccc(CCNc2nc3ccccc3c3[nH]c4ccccc4c23)cc1OC`, the GI50 in the assay on SNB-75 CNS is 14.3 µM; in the assay on SF-268 CNS, 4.77 µM; with HCT-116 colon, 1.71 µM; in the assay on MOLT-4 leukemia, 3.23 µM; in the assay on EKVX NSCLC it was 22.6 µM; in the assay on SF-295 CNS it was 2.55 µM. The GI50 is 2.34 µM with SW-620 colon, 2.17 µM in the assay on SF-539 CNS, 3.66 µM in the assay on PC-3 prostate and 2.66 µM in the assay with A549 NSCLC. The TGI in the assay with SNB-75 CNS is 28.4 µM; with SF-268 CNS it was 20.6 µM; in the assay on HCT-116 colon it was 3.52 µM; in the assay on MOLT-4 leukemia it was 12.3 µM; in the assay on EKVX NSCLC it was 45.3 µM; in the assay on SF-295 CNS, 9.02 µM. Further, the TGI came to 6.07 µM in the assay with SW-620 colon, 4.06 µM in the assay with SF-539 CNS, 14 µM with PC-3 prostate and 8.24 µM in the assay on A549 NSCLC.

On to `CCOC(=O)c1cc2c(n1Cc1cccc(OC)c1)-c1oncc1CC2`, for which the GI50 in the assay with SNB-75 CNS was 0.399 µM; in the assay on SF-268 CNS it was 18 µM; with HCT-116 colon, 0.47 µM; with MOLT-4 leukemia, 1.16 µM; in the assay with EKVX NSCLC, 9.1 µM; in the assay with SF-295 CNS, 0.433 µM. For the same molecule, the GI50 in the assay on SW-620 colon is 0.433 µM; in the assay on SF-539 CNS, 1.16 µM; with PC-3 prostate it was 5.19 µM; in the assay on A549 NSCLC it was 9.42 µM. For the same molecule, the TGI in the assay on SNB-75 CNS was 3.03 µM; in the assay with SF-268 CNS, above 100 µM; with HCT-116 colon, 19.9 µM; in the assay on MOLT-4 leukemia, above 100 µM; in the assay with EKVX NSCLC it was above 100 µM; with SF-295 CNS it was 49.7 µM. The TGI in the assay on SW-620 colon is above 100 µM; with SF-539 CNS, 7.35 µM; in the assay with PC-3 prostate, above 100 µM; in the assay with A549 NSCLC, above 100 µM.

With `CCOP1(=O)OCC2OC(n3cnc4c(N)ncnc43)C(O)C2O1` (centres undefined), the TGI in the assay with SNB-75 CNS, with SF-268 CNS, in the assay on HCT-116 colon, in the assay on MOLT-4 leukemia, in the assay with EKVX NSCLC and in the assay on SF-295 CNS was above 100 µM in each case. Besides, the TGI with SW-620 colon, with SF-539 CNS, in the assay on PC-3 prostate and in the assay with A549 NSCLC was above 100 µM in each case.

Turning to `CN(NC(=O)/C(=C/c1ccc(O)cc1)NC(=O)c1ccccc1)c1ccnc2cc(Cl)ccc12`, the TGI in the assay with SNB-75 CNS was determined as 22.8 µM; with SF-268 CNS, 36 µM; with HCT-116 colon, 38.2 µM; in the assay with MOLT-4 leukemia, 43 µM; in the assay on EKVX NSCLC, 42.9 µM; with SF-295 CNS it was 32.3 µM. The TGI turned out to be 47.2 µM in the assay with SW-620 colon, 43.3 µM in the assay on SF-539 CNS, 32.7 µM in the assay with PC-3 prostate and 38.4 µM with A549 NSCLC.

With `COc1ccc(NC(=O)c2ccc(NC3=C(Cl)C(=O)N(Cc4ccccc4)C3=O)cc2)cc1`, the GI50 in the assay with SNB-75 CNS was 12.9 µM; in the assay with SF-268 CNS it was 31.5 µM; with HCT-116 colon it was 2.36 µM; in the assay with MOLT-4 leukemia, 2.6 µM; in the assay on EKVX NSCLC it was 32.1 µM; in the assay on SF-295 CNS, 3.52 µM. Further, the GI50 in the assay on SW-620 colon was 4.83 µM; with SF-539 CNS, 3.29 µM; in the assay with PC-3 prostate it was 6.74 µM; with A549 NSCLC, 10.4 µM. In addition, the TGI was 34.6 µM with SNB-75 CNS; above 100 µM in the assay on SF-268 CNS; 4.89 µM with HCT-116 colon; above 100 µM in the assay on MOLT-4 leukemia; above 100 µM with EKVX NSCLC; 10.4 µM with SF-295 CNS. In addition, the TGI was above 100 µM in the assay with SW-620 colon, 11.8 µM in the assay on SF-539 CNS, 19.9 µM in the assay on PC-3 prostate and 29.9 µM in the assay with A549 NSCLC.

As to `Cn1cc(-c2ccc3cc(-c4ccc(CC(=O)Nc5cc(C(C)(C)C)nn5C)cc4)cnc3c2)cn1`, the GI50 in the assay with SNB-75 CNS is 0.0723 µM; with SF-268 CNS, 0.294 µM; in the assay with HCT-116 colon it was 0.191 µM; with MOLT-4 leukemia, 0.282 µM; with EKVX NSCLC, 0.282 µM; in the assay with SF-295 CNS, 0.307 µM. The GI50 in the assay with SW-620 colon was 0.324 µM; in the assay with SF-539 CNS, 0.112 µM; in the assay with PC-3 prostate, 0.36 µM; in the assay on A549 NSCLC, 0.336 µM. Besides, the TGI in the assay with SNB-75 CNS, with SF-268 CNS, with HCT-116 colon, in the assay with MOLT-4 leukemia, in the assay on EKVX NSCLC and in the assay on SF-295 CNS was above 100 µM in each case. Moreover, the TGI in the assay with SW-620 colon is above 100 µM; in the assay on SF-539 CNS, 12.4 µM; in the assay with PC-3 prostate it was above 100 µM; in the assay on A549 NSCLC, above 100 µM.

For the molecule `O=C(Nc1ccc(Cl)cc1)NS(=O)(=O)c1ccc2c(c1)CCC2`, the GI50 is 28.1 µg/mL in the assay on SNB-75 CNS; 15.7 µg/mL in the assay on SF-268 CNS; 8.93 µg/mL in the assay with HCT-116 colon; 19.7 µg/mL in the assay with MOLT-4 leukemia; 22.4 µg/mL with EKVX NSCLC; 12 µg/mL in the assay on SF-295 CNS. In addition, the GI50 in the assay with SW-620 colon is 10.6 µg/mL; in the assay on SF-539 CNS, 17.6 µg/mL; in the assay with A549 NSCLC, 11.9 µg/mL. Also, the TGI in the assay on SNB-75 CNS was > 100 µM and 64.7 µg/mL; in the assay with SF-268 CNS, > 100 µM and 35.7 µg/mL; in the assay with HCT-116 colon it was > 67.3 µM and 27.9 µg/mL; with MOLT-4 leukemia it was 98.2 µM and 74.6 µg/mL; in the assay on EKVX NSCLC, > 100 µM and 72.1 µg/mL; in the assay on SF-295 CNS it was > 100 µM and 31.9 µg/mL. Also, the TGI with SW-620 colon is > 100 µM and 33.6 µg/mL; in the assay on SF-539 CNS, > 69.2 µM and 37 µg/mL; in the assay on PC-3 prostate it was 47.3 µM; in the assay with A549 NSCLC, 97.7 µM and 31.3 µg/mL.

As for `COc1ccc(C(=O)c2cc3c(N)c(C(=O)Nc4cccc(Cl)c4)sc3nc2C)cc1`, the GI50 is 0.743 µM with SNB-75 CNS; 2.49 µM with SF-268 CNS; 1.45 µM with HCT-116 colon; 1.89 µM with MOLT-4 leukemia; 2.06 µM in the assay with EKVX NSCLC; 1.08 µM with SF-295 CNS. Besides, the GI50 with SW-620 colon was 1.67 µM; in the assay on SF-539 CNS, 0.995 µM; with PC-3 prostate, 1.48 µM; in the assay on A549 NSCLC, 1.67 µM. Besides, the TGI was 2.75 µM in the assay with SNB-75 CNS; above 33.3 µM with SF-268 CNS; above 33.3 µM in the assay with HCT-116 colon; above 33.3 µM in the assay on MOLT-4 leukemia; above 33.3 µM with EKVX NSCLC; above 33.3 µM with SF-295 CNS. Also, the TGI in the assay on SW-620 colon was above 33.3 µM; in the assay on SF-539 CNS, 3.2 µM; in the assay with PC-3 prostate, above 33.3 µM; with A549 NSCLC it was above 33.3 µM.
